This passage reports EC50, Activity and microsomal CLint results from ChEMBL document CHEMBL5154671 (Eur J Med Chem, 2022).

Calls of active or inactive are those of the source. No cut-off for these calls is given here.

The target of data set [1] is Free fatty acid receptor 1 (Homo sapiens, UniProt O14842). Nature of the data set: Agonist activity at human FFA1 expressed in CHO cells measured by FLIPR assay. The class given is functional, cell-based.
The target of data set [2] is T1, Peroxisome proliferator-activated receptor alpha (Homo sapiens, UniProt Q07869).
T1 sequence (Q07869 whole entry): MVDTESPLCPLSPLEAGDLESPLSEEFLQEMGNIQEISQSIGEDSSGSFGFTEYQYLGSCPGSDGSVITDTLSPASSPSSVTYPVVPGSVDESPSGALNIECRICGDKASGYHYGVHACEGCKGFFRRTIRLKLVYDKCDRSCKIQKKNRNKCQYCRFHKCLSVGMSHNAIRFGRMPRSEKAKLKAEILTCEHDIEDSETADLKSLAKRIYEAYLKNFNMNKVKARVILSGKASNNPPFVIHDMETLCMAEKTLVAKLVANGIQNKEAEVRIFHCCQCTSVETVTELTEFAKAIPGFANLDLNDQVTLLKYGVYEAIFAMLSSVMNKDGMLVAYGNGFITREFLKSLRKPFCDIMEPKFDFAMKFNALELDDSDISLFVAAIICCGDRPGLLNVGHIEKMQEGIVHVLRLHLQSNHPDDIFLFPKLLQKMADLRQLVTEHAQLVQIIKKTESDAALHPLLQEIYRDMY
Put plainly: Agonist activity at human PPARalpha measured by dual luciferase reporter gene assay.

Data set [3] has as its system Mus musculus. Put plainly: Hypolipidemic activity in Triton1339W-induced hyperlipidemic ICR mouse model assessed as reduction in plasma TG level at 80 mg/kg, administered once daily for 5 days. Format: functional, organism-based. To be noted: time 5.0 day.
The subject of data set [4] is Mus musculus. Nature of the data set: Hypolipidemic activity in Triton1339W-induced hyperlipidemic ICR mouse model assessed as reduction in plasma TC level at 80 mg/kg, administered once daily for 5 days. The class given is functional, organism-based. To be noted: time 5.0 day.
The nature of data set [5]: Clearance in rat liver microsomes in presence of NADPH measured by LC/MS analysis. To be noted: read-out: CLH. Format: ADME, Microsome.
Data set [6] has as its system Mus musculus. Nature of the data set: Anti-NASH activity in high-fat/high-sugar diet and CCl4-induced nonalcoholic steatohepatitis male C57BL/6 mouse assessed as increase in HDL level at 100 mg/kg, po administered for 4 weeks. The class given is functional, organism-based.
The subject of data set [7] is Mus musculus. Put plainly: Anti-NASH activity in high-fat/high-sugar diet and CCl4-induced nonalcoholic steatohepatitis male C57BL/6 mouse assessed as decrease in liver non-esterified fatty acid contents at 100 mg/kg, po administered for 4 weeks. Format: functional, organism-based.
In data set [8] the test system is Mus musculus. Put plainly: Anti-NASH activity in high-fat/high-sugar diet and CCl4-induced nonalcoholic steatohepatitis male C57BL/6 mouse assessed as decrease in disease activity score at 100 mg/kg, po administered for 4 weeks. The class given is functional, organism-based.
Data set [9] has as its system Mus musculus. Put plainly: Anti-NASH activity in high-fat/high-sugar diet and CCl4-induced nonalcoholic steatohepatitis male C57BL/6 mouse assessed as decrease in hepatocyte ballooning score at 100 mg/kg, po administered for 4 weeks. Format: functional, organism-based.
In data set [10] the test system is Mus musculus. Put plainly: Protection against liver fibrosis in high-fat/high-sugar diet and CCl4-induced nonalcoholic steatohepatitis male C57BL/6 mouse assessed as decrease in collagen area at 100 mg/kg, po administered for 4 weeks. The class given is functional, organism-based.
The test system of data set [11] is Mus musculus. Nature of the data set: Anti-NASH activity in high-fat/high-sugar diet and CCl4-induced nonalcoholic steatohepatitis male C57BL/6 mouse assessed as decrease in SREBP-1C mRNA expression at 100 mg/kg, po administered for 4 weeks. The class given is functional, organism-based.
Data set [12] relates to Mus musculus. Put plainly: Anti-inflammatory activity in high-fat/high-sugar diet and CCl4-induced nonalcoholic steatohepatitis male C57BL/6 mouse assessed as decrease in TNF-alpha mRNA expression at 100 mg/kg, po administered for 4 weeks. Format: functional, organism-based.
For data set [13], the system named is Mus musculus. Nature of the data set: Anti-fibrotic activity in high-fat/high-sugar diet and CCl4-induced nonalcoholic steatohepatitis male C57BL/6 mouse assessed as decrease in TGF-beta mRNA expression at 100 mg/kg, po administered for 4 weeks. The class given is functional, organism-based.
Data set [14] has as its system Mus musculus. Put plainly: Antioxidant activity in high-fat/high-sugar diet and CCl4-induced nonalcoholic steatohepatitis male C57BL/6 mouse assessed as increase in catalase mRNA expression at 100 mg/kg, po administered for 4 weeks. Format: functional, organism-based.
The subject of data set [15] is Mus musculus. Nature of the data set: Antioxidant activity in high-fat/high-sugar diet and CCl4-induced nonalcoholic steatohepatitis male C57BL/6 mouse assessed as increase in SOD1 mRNA expression at 100 mg/kg, po administered for 4 weeks. Format: functional, organism-based.
Data set [16] deals with Mus musculus. Put plainly: Protection against CCl4-induced liver fibrosis in male C57BL/6 mouse assessed as decrease in collagen area in liver at 100 mg/kg measured by masson staining. The class given is functional, organism-based.
In data set [17] the test system is Mus musculus. Nature of the data set: Protection against CCl4-induced liver fibrosis in male C57BL/6 mouse assessed as decrease in hepatic hydroxyproline content at 100 mg/kg […]. Format: functional, organism-based.
Data set [18] in a line: Acute toxicity in ICR mouse assessed as change in serum AST level at 500 mg/kg, IG. Format: organism-based. To be noted: in vivo, po.
The nature of data set [19]: Acute toxicity in ICR mouse assessed as change in serum urea level at 500 mg/kg, IG. To be noted: in vivo, po. The class given is organism-based.

Sequence of Free fatty acid receptor 1 (O14842 whole entry): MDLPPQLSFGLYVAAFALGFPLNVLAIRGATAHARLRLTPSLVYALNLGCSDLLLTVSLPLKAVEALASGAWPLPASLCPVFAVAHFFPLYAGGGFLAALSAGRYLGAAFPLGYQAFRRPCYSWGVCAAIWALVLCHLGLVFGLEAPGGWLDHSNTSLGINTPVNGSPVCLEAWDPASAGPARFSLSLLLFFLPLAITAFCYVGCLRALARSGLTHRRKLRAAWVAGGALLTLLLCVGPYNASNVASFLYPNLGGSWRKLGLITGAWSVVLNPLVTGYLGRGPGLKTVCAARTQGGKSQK

In the case of `COc1ccc(/C=C/c2cc(OC)cc(OCc3ccc(OCC(=O)O)c(F)c3)c2)cc1`, the values for the EC50 in data set [1] and in [2] were 1.5 µM and 8.5 µM, respectively. For the same compound, the result in the data set with Mus musculus [3], in the data set on Mus musculus [4], in the data set with Mus musculus [6], in the data set with Mus musculus [7], in the data set with Mus musculus [8] and with Mus musculus [9] was Active. Besides, the result in the data set with Mus musculus [10], in the data set on Mus musculus [11], with Mus musculus [12], with Mus musculus [13], in the data set with Mus musculus [14] and with Mus musculus [15] was Active. The result in the data set with Mus musculus [16] and in the data set on Mus musculus [17] was Active. Also, the microsomal CLint in [5] is 27.1 µL/min/mg. Also, the Activity entry in data set [18] and in [19] was “Non-Toxic” each time.
